Test results taken from ChEMBL document CHEMBL1201862, “PubChem BioAssay data set” (2004).
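Briefly, cells in 96-well plates were exposed to five compound concentrations for 48 h, and endpoints were estimated by linear interpolation. GI50 = concentration required for 50% inhibition of growth.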 The source made the active and inactive calls. No stated cut-off is given here; in the data, active = GI50 up to about 1.1 µM and inactive = higher.

How the values were obtained:
Experiment in all cases: DTP human tumour cell line panel, 48 h
T47D = tested on: T47D
K562 = tested on: K562
SF-539 = tested on: SF-539
M14 = tested on: M14
UO-31 = tested on: UO-31
OVCAR-3 = tested on: OVCAR-3
SR = tested on: SR
MDA-MB-231 = tested on: MDA-MB-231
SK-MEL-28 = tested on: SK-MEL-28
SK-MEL-5 = tested on: SK-MEL-5
SK-OV-3 = tested on: SK-OV-3
DU-145 = tested on: DU-145
TK-10 = tested on: TK-10
EKVX = tested on: EKVX
786-0 = tested on: 786-0
A498 = tested on: A498
SNB-75 = tested on: SNB-75
LOX IMVI = tested on: LOX IMVI
SK-MEL-2 = tested on: SK-MEL-2
OVCAR-4 = tested on: OVCAR-4
IGROV-1 = tested on: IGROV-1
HCT-15 = tested on: HCT-15
SNB-19 = tested on: SNB-19
PC-3 = tested on: PC-3
NCI-H23 = tested on: NCI-H23
HL-60 = tested on: HL-60
HT-29 = tested on: HT-29
Malme-3M = tested on: Malme-3M
NCI-H522 = tested on: NCI-H522
Hs-578T = tested on: Hs-578T
COLO 205 = tested on: COLO 205
NCI-H226 = tested on: NCI-H226
NCI/ADR-RES = tested on: NCI/ADR-RES
MDA-MB-435 = tested on: MDA-MB-435
CCRF-CEM = tested on: CCRF-CEM
UACC-62 = tested on: UACC-62
UACC-257 = tested on: UACC-257
SF-268 = tested on: SF-268
SF-295 = tested on: SF-295
A549 = tested on: A549
SW-620 = tested on: SW-620
HOP-92 = tested on: HOP-92
OVCAR-8 = tested on: OVCAR-8
SN12C = tested on: SN12C
OVCAR-5 = tested on: OVCAR-5
KM12 = tested on: KM12
MOLT-4 = tested on: MOLT-4
U-251 = tested on: U-251
RPMI-8226 = tested on: RPMI-8226
HCT-116 = tested on: HCT-116
MDA-N = tested on: MDA-N
HOP-62 = tested on: HOP-62
MCF7 = tested on: MCF7
BT-549 = tested on: BT-549
CAKI-1 = tested on: CAKI-1
NCI-H460 = tested on: NCI-H460
HCC 2998 = tested on: HCC 2998
ACHN = tested on: ACHN
RXF 393 = tested on: RXF 393

## COc1cc2c[n+](C)c3c(c2cc1OC)Cc1cc2c(cc1-3)OCO2
T47D
  GI50: > 100 µM (inactive)
K562
  GI50: > 100 µM (inactive)
SF-539
  GI50: > 100 µM (inactive)
M14
  GI50: > 100 µM (inactive)
UO-31
  GI50: > 100 µM (inactive)
OVCAR-3
  GI50: > 100 µM (inactive)
SR
  GI50: 29.1 µM (inactive)
MDA-MB-231
  GI50: > 100 µM (inactive)
SK-MEL-28
  GI50: > 100 µM (inactive)
SK-MEL-5
  GI50: > 100 µM (inactive)
SK-OV-3
  GI50: > 100 µM (inactive)
DU-145
  GI50: > 100 µM (inactive)
TK-10
  GI50: > 100 µM (inactive)
EKVX
  GI50: > 100 µM (inactive)
786-0
  GI50: > 100 µM (inactive)
A498
  GI50: > 100 µM (inactive)
SNB-75
  GI50: > 100 µM (inactive)
LOX IMVI
  GI50: > 100 µM (inactive)
SK-MEL-2
  GI50: > 100 µM (inactive)
OVCAR-4
  GI50: 87.3 µM (inactive)
IGROV-1
  GI50: > 100 µM (inactive)
HCT-15
  GI50: > 100 µM
SNB-19
  GI50: > 100 µM (inactive)
PC-3
  GI50: > 100 µM (inactive)
NCI-H23
  GI50: > 100 µM (inactive)
HL-60
  GI50: > 100 µM (inactive)
HT-29
  GI50: > 100 µM (inactive)
Malme-3M
  GI50: > 100 µM (inactive)
NCI-H522
  GI50: 52.4 µM (inactive)
Hs-578T
  GI50: > 100 µM (inactive)
COLO 205
  GI50: > 100 µM (inactive)
NCI-H226
  GI50: > 100 µM (inactive)
NCI/ADR-RES
  GI50: > 100 µM (inactive)
MDA-MB-435
  GI50: > 100 µM (inactive)
CCRF-CEM
  GI50: 71.4 µM (inactive)
UACC-62
  GI50: > 100 µM (inactive)
UACC-257
  GI50: > 100 µM (inactive)
SF-268
  GI50: > 100 µM (inactive)
SF-295
  GI50: > 100 µM (inactive)
A549
  GI50: > 100 µM (inactive)
SW-620
  GI50: > 100 µM (inactive)
HOP-92
  GI50: > 100 µM (inactive)
OVCAR-8
  GI50: > 100 µM (inactive)
SN12C
  GI50: > 100 µM (inactive)
OVCAR-5
  GI50: > 100 µM (inactive)
KM12
  GI50: > 100 µM (inactive)
MOLT-4
  GI50: 48.9 µM (inactive)
U-251
  GI50: > 100 µM (inactive)
RPMI-8226
  GI50: 65 µM (inactive)
HCT-116
  GI50: > 100 µM (inactive)
MDA-N
  GI50: > 100 µM (inactive)
HOP-62
  GI50: > 100 µM (inactive)
MCF7
  GI50: > 100 µM (inactive)
BT-549
  GI50: 90.2 µM (inactive)
CAKI-1
  GI50: > 100 µM (inactive)

## O=C(O)C1[C@@H](C(=O)O)C1(Br)CBr (some centres not stated)
T47D
  GI50: > 100 µM (inactive)
K562
  GI50: > 100 µM (inactive)
SF-539
  GI50: > 100 µM (inactive)
M14
  GI50: > 100 µM (inactive)
UO-31
  GI50: > 100 µM (inactive)
OVCAR-3
  GI50: > 100 µM (inactive)
SR
  GI50: > 100 µM (inactive)
MDA-MB-231
  GI50: > 100 µM (inactive)
SK-MEL-28
  GI50: > 100 µM (inactive)
SK-MEL-5
  GI50: > 100 µM (inactive)
SK-OV-3
  GI50: > 100 µM (inactive)
DU-145
  GI50: > 100 µM (inactive)
TK-10
  GI50: > 100 µM (inactive)
EKVX
  GI50: > 100 µM (inactive)
786-0
  GI50: > 100 µM (inactive)
A498
  GI50: > 100 µM (inactive)
SNB-75
  GI50: > 100 µM (inactive)
LOX IMVI
  GI50: > 100 µM (inactive)
NCI-H460
  GI50: > 100 µM (inactive)
SK-MEL-2
  GI50: > 100 µM (inactive)
OVCAR-4
  GI50: > 100 µM (inactive)
IGROV-1
  GI50: > 100 µM (inactive)
HCT-15
  GI50: > 100 µM
SNB-19
  GI50: > 100 µM (inactive)
PC-3
  GI50: > 100 µM (inactive)
HCC 2998
  GI50: > 100 µM (inactive)
NCI-H23
  GI50: > 100 µM (inactive)
HL-60
  GI50: > 100 µM (inactive)
HT-29
  GI50: > 100 µM (inactive)
NCI-H522
  GI50: > 100 µM (inactive)
Hs-578T
  GI50: > 100 µM (inactive)
COLO 205
  GI50: > 100 µM (inactive)
NCI-H226
  GI50: > 100 µM (inactive)
NCI/ADR-RES
  GI50: > 100 µM (inactive)
MDA-MB-435
  GI50: > 100 µM (inactive)
UACC-62
  GI50: > 100 µM (inactive)
UACC-257
  GI50: > 100 µM (inactive)
SF-268
  GI50: > 100 µM (inactive)
SF-295
  GI50: > 100 µM (inactive)
A549
  GI50: > 100 µM (inactive)
SW-620
  GI50: > 100 µM (inactive)
HOP-92
  GI50: > 100 µM (inactive)
OVCAR-8
  GI50: > 100 µM (inactive)
SN12C
  GI50: > 100 µM (inactive)
OVCAR-5
  GI50: > 100 µM (inactive)
KM12
  GI50: > 100 µM (inactive)
MOLT-4
  GI50: > 100 µM (inactive)
U-251
  GI50: > 100 µM (inactive)
RPMI-8226
  GI50: > 100 µM (inactive)
HCT-116
  GI50: > 100 µM (inactive)
MDA-N
  GI50: > 100 µM (inactive)
HOP-62
  GI50: > 100 µM (inactive)
MCF7
  GI50: > 100 µM (inactive)
BT-549
  GI50: > 100 µM (inactive)
ACHN
  GI50: > 100 µM (inactive)
CAKI-1
  GI50: > 100 µM (inactive)
RXF 393
  GI50: > 100 µM (inactive)
